According to patent publication US20230372313A1, “METHODS FOR REDUCING GLYCOSPHINGOLIPID CONCENTRATION IN BRAIN TISSUE AND METHODS OF TREATMENT OF NEURODEGENERATIVE DISEASES INVOLVING THE SAME” (GENZYME CORPORATION, priority 2020, published 2023):

Key:
Format in all cases: in vivo, human
[1] = test system: participants with early-stage PD carrying a GBA mutation; test: MDS-UPDRS (parts II and III) scores in OFF state; conditions: Combined Japan + ROW, all Compound 2 doses, N = 22, OFF state
Method: MDS-UPDRS (parts II [motor experiences of daily living; 13 items] and III [motor examination; 18 items]) scores are reported through Week 8. The MDS-UPDRS scale was assessed during the OFF state, with no PD medication taken for ≥12 hours prior.
The changes from baseline in MDS-UPDRS (parts II and III) scores at week 8 were assessed for participants in part 1 of the clinical study described in Example 2.

[2] = Safety and tolerability: adverse events in the treatment-emergent period, part 1 of phase 2 trial in PD patients carrying a GBA mutation
Text: This clinical trial is a 3-year, phase 2, randomised, double-blinded, placebo-controlled, multicenter study of Compound 2 in participants with early-stage PD carrying a GBA mutation. The trial is divided into 2 consecutive parts: part 1 is a dose escalation study (described below) of safety, pharmacokinetics, and pharmacodynamics of 3 doses using 3 sequential cohorts; part 2 is an ongoing 2-arm study of efficacy and safety of Compound 2.
Participants were randomised to 3 doses of once-daily orally administered Compound 2 or placebo, in sequential cohort design, and were followed up to 36 weeks (52 weeks for Japanese participants). Participants in the low-dose group received 4 mg of Compound 2 as a once daily oral dose; participants in the mid-dose group received 8 mg of Compound 2 a once daily oral dose; and participants in the high-dose group received 15 mg of Compound 2 a once daily oral dose.
The primary outcome in part 1 of trial was an assessment of safety and tolerability of orally administered Compound 2 versus placebo through Week 4 (primary analysis period for each sequential cohort). In addition, safety assessments were recorded for every 4 weeks until completion. Safety was assessed by physical examination; neurological examination; clinical laboratory evaluations conducted at a central laboratory, including haematology, biochemistry, urinalysis, and serology tests; vital signs; assessment of AEs and concomitant medication; ophthalmological examination; and electrocardiogram. AEs, serious Aes, and AEs of special interest (AESI) were recorded throughout the study. Serious AEs were defined as fatal, or life threatening, requiring or prolonging inpatient hospitalisation, or disabling/incapacitating, congenital anomalies, or medically important events (e.g. malignancies or chronic neurodegenerative diseases). AESI included new or worsening lens opacities and cataracts (as assessed by ophthalmology evaluations at screening and at Weeks 4, 12, 28, 36 [Weeks 4, 12, 36, 52 for Japanese participants]), pregnancy events, increase of alanine aminotransferase, or symptomatic overdose with study drug.
During the study, 29 participants were randomised to Compound 2 (Japan, n=9; ROW, n=13) or placebo (n=3; n=4). Eight (89%) Japanese and 12 (92%) ROW Compound 2-treated participants experienced ≥1 adverse event (AE) versus 2 (67%) and 4 (100%) participants from the respective placebo groups. […] Two Compound 2-treated ROW participants discontinued due to AEs (confusional state and panic attack).

glucosylceramide (GL-1) = test: CSF glucosylceramide (GL-1) levels, pharmacodynamics
Text: Analyses were based on all available data from participants who enrolled in part 1 of the trial and were randomised to receive either Compound 2 or placebo for up to 52 weeks for Japanese participants and 36 weeks for the ROW population. As part 1 was an exploratory, dose-escalation study, the sample size was not based on a statistical power calculation. Participants included in the primary safety analyses were those who were randomized and received at least one dose of Compound 2 or placebo. A data monitoring committee was responsible for overseeing the safety of patients and the risk/benefit ratio throughout the study. Duration of exposure to Compound 2 was different among the doses, as per the sequential cohort design, with the low- and high-dose cohorts commencing the study first and last, respectively. For pharmacokinetics, plasma parameters were calculated using noncompartmental methods, from plasma Compound 2 concentrations obtained after single dose administration. AUC0-24 and AUC0-48 were calculated using the trapezoidal method over a predefined time period of 24 hours or 48 hours, respectively. CLss/F was calculated using the following equation: CLss/F=Dose/AUCτ, where τ is the dosing interval. For pharmacodynamics, percent reduction of plasma or CSF GL-1 from baseline was calculated as (value−baseline)/baseline×100. Formal statistical testing was not conducted on MDS-UPDRS scale assessments.
In exploratory analyses, Compound 2 pharmacodynamics in plasma and CSF were assessed by mean percent change in GL-1 levels from baseline through Week 4. GL-1 levels were assessed in plasma and CSF samples collected at the day of randomisation and Week 4, with plasma GL-1 levels also assessed at Week 2.
Concentrations of GL-1 in plasma and CSF were determined using a liquid chromatography tandem mass spectrometry method. Secondary pharmacokinetic outcomes were evaluated over a 4-week period of once-daily Compound 2 dosing (Table 7).

[3] = Japan, High 15 mg once daily oral, n = 3
[4] = Japan, Low 4 mg once daily oral, n = 3
[5] = Japan, Mid 8 mg once daily oral, n = 3
[6] = ROW, Low 4 mg once daily oral, n = 4
[7] = ROW, Mid 8 mg once daily oral, n = 5
[8] = ROW, High 15 mg once daily oral, n = 4, CSF sample not collected for 1 participant

CC(C)(NC(=O)O[C@@H]1CN2CCC1CC2)c1csc(-c2ccc(F)cc2)n1 [Compound 2, (S)-quinuclidin-3-yl (2-(2-(4-fluorophenyl)thiazol-4-yl)propan-2-yl)carbamate]
MDS-UPDRS (part II + III) score, Change from baseline at week 8 (mean) [1]: −2.9
Number of participants with AEs: Infections and infestations [2, 3]: 1
Number of participants with AEs: Infections and infestations [2, 4]: 2
Number of participants with AEs: Infections and infestations [2, 5]: 0
Number of participants with AEs: Infections and infestations ([2]; ROW, High 15 mg once daily oral, n = 4): 1
Number of participants with AEs: Infections and infestations [2, 6]: 0
Number of participants with AEs: Infections and infestations [2, 7]: 0
serious AEs or deaths ([2]; all participants, part 1): no serious AEs or deaths occurred
participants who discontinued due to AEs (confusional state and panic attack) ([2]; human, in vivo): Two
CSF GL-1, Week 4 (mean) (glucosylceramide (GL-1); [3]): 2.770 ng/mL
CSF GL-1, Week 4, Change from baseline (%) (mean) (glucosylceramide (GL-1); [3]): −72.0%
CSF GL-1, Week 4, Change from baseline (mean) (glucosylceramide (GL-1); [3]): -6.663 ng/mL
CSF GL-1, Week 4 (mean) (glucosylceramide (GL-1); [4]): 3.843 ng/mL
CSF GL-1, Week 4, Change from baseline (%) (mean) (glucosylceramide (GL-1); [4]): −21.7%
CSF GL-1, Week 4, Change from baseline (mean) (glucosylceramide (GL-1); [4]): -1.733 ng/mL
CSF GL-1, Week 4 (mean) (glucosylceramide (GL-1); [5]): 3.027 ng/mL
CSF GL-1, Week 4, Change from baseline (%) (mean) (glucosylceramide (GL-1); [5]): −67.0%
CSF GL-1, Week 4, Change from baseline (mean) (glucosylceramide (GL-1); [5]): -5.023 ng/mL
mean reduction in CSF GL-1 at Week 4 (glucosylceramide (GL-1); Japanese cohort, high-dose 15 mg): 72.0%
mean reduction in CSF GL-1 at Week 4 (glucosylceramide (GL-1); Japanese cohort, low-dose 4 mg): 21.7%
mean reduction in CSF GL-1 at Week 4 (glucosylceramide (GL-1); Japanese cohort, medium-dose 8 mg): 67.0%
mean reduction in CSF GL-1 at Week 4 (glucosylceramide (GL-1); ROW participants, high-dose 15 mg): 74.3%
mean reduction in CSF GL-1 at Week 4 (glucosylceramide (GL-1); ROW participants, low-dose 4 mg): 41.0%
mean reduction in CSF GL-1 at Week 4 (glucosylceramide (GL-1); ROW participants, medium-dose 8 mg): 58.0%
CSF GL-1, Week 4 (mean) (glucosylceramide (GL-1); [8]): 1.623 ng/mL
CSF GL-1, Week 4, Change from baseline (%) (mean) (glucosylceramide (GL-1); [8]): −74.3%
CSF GL-1, Week 4, Change from baseline (mean) (glucosylceramide (GL-1); [8]): -5.250 ng/mL
CSF GL-1, Week 4 (mean) (glucosylceramide (GL-1); [6]): 4.315 ng/mL
CSF GL-1, Week 4, Change from baseline (%) (mean) (glucosylceramide (GL-1); [6]): −41.0%
CSF GL-1, Week 4, Change from baseline (mean) (glucosylceramide (GL-1); [6]): -2.433 ng/mL
CSF GL-1, Week 4 (mean) (glucosylceramide (GL-1); [7]): 4.406 ng/mL
CSF GL-1, Week 4, Change from baseline (%) (mean) (glucosylceramide (GL-1); [7]): −58.0%
CSF GL-1, Week 4, Change from baseline (mean) (glucosylceramide (GL-1); [7]): -6.376 ng/mL
decrease in CSF GL-1 levels from baseline (glucosylceramide (GL-1); highest dose (15 mg), Japanese and ROW cohorts): 72.0%-74.3%
brain penetration (glucosylceramide (GL-1); oral administration, indicated by CSF GL-1 decrease): brain-penetrant on oral administration
decrease of CSF GL-1 levels from baseline versus dose (glucosylceramide (GL-1); over 4 weeks): dose-dependent manner
